Our source for the IC50 values is ChEMBL document CHEMBL1141829, “10'-Hydroxyusambarensine, a new antimalarial bisindole alkaloid from the roots of Strychnos usambarensis” (J Nat Prod, 1999).

The test system of assay [1] is Plasmodium falciparum. Nature of the assay: Antiplasmodial activity after 36 hrs against chloroquine-sensitive Plasmodium falciparum FCA 20 in human erythrocytes by [3H]hypoxanthine uptake. The assay is classed as functional, organism-based.
Assay [2] concerns Plasmodium falciparum. The experiment in a line: Antiplasmodial activity after 36 hrs against chloroquine-resistant Plasmodium falciparum W2 in human erythrocytes by [3H]hypoxanthine uptake. The assay is classed as functional, organism-based.

≈ marks a conversion by molar mass, not a printed value.

`C/C=C1/CN2CCc3c([nH]c4ccccc34)[C@@H]2C[C@@H]1Cc1nccc2c1[nH]c1ccc(O)cc12`: the half-inhibitory concentration (IC50) (in general, the concentration that gives 50% inhibition) with Plasmodium falciparum [1] worked out at 0.113 µg/mL (≈ 0.252 µM); with Plasmodium falciparum [2], 0.122 µg/mL (≈ 0.272 µM).
`C/C=C1\CN2CCc3c([nH]c4ccccc34)[C@@H]2C[C@@H]1Cc1nccc2c1[nH]c1ccc(O)cc12`: the values for the 50% inhibitory concentration (IC50) with Plasmodium falciparum [1] and in the assay with Plasmodium falciparum [2] were 0.48 µg/mL (≈ 1.07 µM) and 0.16 µg/mL (≈ 0.357 µM), respectively.
As to `C/C=C1/CN2CCc3c([nH]c4ccccc34)[C@@H]2C[C@@H]1Cc1nccc2c1[nH]c1ccccc12` [USAMBARENSINE], the IC50 in the assay on Plasmodium falciparum [1] was found to be 0.655 µg/mL (≈ 1.51 µM); in the assay on Plasmodium falciparum [2] it was 0.265 µg/mL (≈ 0.613 µM).
